What all share (assay): Test A postemergence
Holding throughout (assay type): in vivo

In assay [1] the test system is barnyardgrass (Echinochloa crus-galli). To be noted: Echinochloa crus-galli, post-emergence, 240 h; for pest or weed control at 125 g/ha: 125 g ai/ha; for pest or weed control at 500 g/ha: 500 g ai/ha. The procedure, abridged:
(§1)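 Each rating is a visual injury score from 0 to 100 given about 10 d after treatment, judged against untreated controls kept alongside in the greenhouse. In loam soil–sand blend, seeds got a preemergence directed soil spray, while postemergence plants were 2 to 10 cm tall at spraying.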

Assay [2] concerns blackgrass (Alopecurus myosuroides). To be noted: Alopecurus myosuroides, post-emergence, 240 h; for pest or weed control at 125 g/ha: 125 g ai/ha; for pest or weed control at 500 g/ha: 500 g ai/ha. The procedure, abridged:
as §1

In the next assay the test system is corn (Zea mays). To be noted: Zea mays, post-emergence, 240 h; for Corn plant response rating (crop injury, 0 = no effect, 100 = complete kill) at 125 g/ha / plant injury at 125 g/ha: 125 g ai/ha; for Corn plant response rating (crop injury, 0 = no effect, 100 = complete kill) at 125 g/ha: visual injury after approximately 10 d; for Corn plant response rating (crop injury, 0 = no effect, 100 = complete kill) at 125 g/ha / Corn plant response rating (crop injury, 0 = no effect, 100 = complete kill) at 500 g/ha: 0 to 100 scale (0 no effect, 100 complete control); for plant injury at 125 g/ha: read-out: Corn plant response rating (0 to 100 scale); for Corn plant response rating (crop injury, 0 = no effect, 100 = complete kill) at 500 g/ha: visual injury, approx. 10 d. The procedure, abridged:
as §1

The test system of assay [3] is ragweed (common ragweed, Ambrosia elatior). The following applies: Ambrosia artemisiifolia, post-emergence, 240 h; for pest or weed control at 125 g/ha: 125 g ai/ha; for pest or weed control at 500 g/ha: 500 g ai/ha. The procedure, abridged:
as §1

For assay [4], the system named is ryegrass, Italian (Italian ryegrass, Lolium multiflorum). To be noted: Lolium multiflorum, post-emergence, 240 h; for pest or weed control at 125 g/ha: 125 g ai/ha; for pest or weed control at 500 g/ha: 500 g ai/ha. The procedure, abridged: as §1
The mark [5] stands for this setting: postemergence, visual injury after approximately 10 d, 0 to 100 scale (0 no effect, 100 complete control), read-out: Plant response rating, Barnyardgrass.
[6] abbreviates: postemergence, visual injury after approximately 10 d, 0 to 100 scale (0 no effect, 100 complete control), read-out: Plant response rating, Blackgrass.
Setting [7] is: postemergence, visual injury after approximately 10 d, 0 to 100 scale (0 no effect, 100 complete control), read-out: Plant response rating, Ragweed.
Setting [8] is: postemergence, visual injury after approximately 10 d, 0 to 100 scale (0 no effect, 100 complete control), read-out: Plant response rating, Ryegrass, Italian.
[9] abbreviates: Postemergence, visual rating about 10 d after treatment, read-out: Barnyardgrass plant response rating (0 to 100 scale, 0 no effect, 100 complete control).
Setting [10] is: Postemergence, visual injury, 0 to 100 scale (0 no effect, 100 complete control), approx. 10 d, read-out: Plant response rating, Barnyardgrass.
[11] abbreviates: Postemergence, visual rating about 10 d after treatment, read-out: Blackgrass plant response rating (0 to 100 scale).
Where [12] appears, read: Postemergence, visual injury, 0 to 100 scale (0 no effect, 100 complete control), approx. 10 d, read-out: Plant response rating, Blackgrass.
Where [13] appears, read: Postemergence, visual rating about 10 d after treatment.
[14] abbreviates: Postemergence, visual rating about 10 d after treatment, read-out: Ragweed plant response rating (0 to 100 scale).
The mark [15] stands for this setting: Postemergence, visual injury, 0 to 100 scale (0 no effect, 100 complete control), approx. 10 d, read-out: Plant response rating, Ragweed.
Setting [16] is: Postemergence, visual rating about 10 d after treatment, read-out: Ryegrass, Italian plant response rating (0 to 100 scale).
Where [17] appears, read: Postemergence, visual injury, 0 to 100 scale (0 no effect, 100 complete control), approx. 10 d, read-out: Plant response rating, Ryegrass, Italian.
[18] abbreviates: postemergence, visual injury vs untreated controls after approx. 10 d, 0 = no effect, 100 = complete control, read-out: Barnyardgrass plant response rating (0 to 100 scale).
Where [19] appears, read: postemergence, visual injury vs untreated controls after approx. 10 d, 0 = no effect, 100 = complete control, read-out: Blackgrass plant response rating (0 to 100 scale).
Setting [20] is: postemergence, visual injury vs untreated controls after approx. 10 d, 0 = no effect, 100 = complete control.
[21] abbreviates: postemergence, visual injury vs untreated controls after approx. 10 d, 0 = no effect, 100 = complete control, read-out: Ragweed plant response rating (0 to 100 scale).
[22] abbreviates: postemergence, visual injury vs untreated controls after approx. 10 d, 0 = no effect, 100 = complete control, read-out: Ryegrass, Italian plant response rating (0 to 100 scale).

Where two headings read alike, the source gives them in different places.

The results in this text go back to patent publication US12077503B2, “Substituted cyclic amides and their use as herbicides” (FMC CORPORATION, priority 2015, dated 2024).

As to `O=C1NC[C@H](c2ccc(OC(F)F)cc2)[C@H]1C(=O)Nc1ccccc1F` [Compound 778], the pest or weed control at 125 g/ha in assay [1] (setting [5]) worked out at 80%; in assay [2] (setting [6]) it was 10%; in assay [3] (setting [7]) it was 0%; in assay [4] (setting [8]) it was 20%. The Corn plant response rating (crop injury, 0 = no effect, 100 = complete kill) at 125 g/ha in the assay on corn (Zea mays) (postemergence) is 0%.
As for `CN1C[C@H](c2ccc(C(F)(F)F)cc2)[C@@H](C(=O)Nc2ccccc2C2CC2)C1=O` [Compound 747], the pest or weed control at 125 g/ha in assay [1] (setting [5]) is 40%; in assay [2] (setting [6]) it was 30%; in assay [3] (setting [7]), 0%; in assay [4] (setting [8]), 0%. For the same compound, the Corn plant response rating (crop injury, 0 = no effect, 100 = complete kill) at 125 g/ha with corn (Zea mays) (postemergence) came to 0%.
`C=CCN1C[C@H](c2ccc(OC)c(F)c2)[C@@H](C(=O)Nc2ccccc2C(F)(F)F)C1=O` [Compound 723]: the pest or weed control at 125 g/ha in assay [1] (setting [5]), in assay [2] (setting [6]), in assay [3] (setting [7]) and in assay [4] (setting [8]) was 0% in each case. The compound also registered a Corn plant response rating (crop injury, 0 = no effect, 100 = complete kill) at 125 g/ha with corn (Zea mays) (postemergence) of 0%.
For the compound `O=C1NC[C@H](c2ccc3c(c2)OCO3)[C@H]1C(=O)Nc1cccc(F)c1F` [Compound 731], the pest or weed control at 125 g/ha in assay [1] (setting [5]) is 70%; in assay [2] (setting [6]), 0%; in assay [3] (setting [7]), 0%; in assay [4] (setting [8]) it was 0%. In addition, the Corn plant response rating (crop injury, 0 = no effect, 100 = complete kill) at 125 g/ha in the assay with corn (Zea mays) (postemergence) came out at 0%.
In the case of `CCc1ccc([C@H]2CNC(=S)[C@@H]2C(=O)Nc2cccc(F)c2C)cc1` [Compound 761], the pest or weed control at 125 g/ha in assay [1] (setting [5]) turned out to be 70%; in assay [2] (setting [6]), 0%; in assay [3] (setting [7]) it was 0%; in assay [4] (setting [8]), 0%. Besides, the Corn plant response rating (crop injury, 0 = no effect, 100 = complete kill) at 125 g/ha with corn (Zea mays) (postemergence) amounted to 0%.
For `O=C1NC[C@H](c2ccc3c(c2)CCO3)[C@H]1C(=O)Nc1cccc(F)c1F` [Compound 785], the pest or weed control at 125 g/ha in assay [1] (setting [5]) was found to be 90%; in assay [2] (setting [6]), 20%; in assay [3] (setting [7]), 0%; in assay [4] (setting [8]), 30%. Besides, the Corn plant response rating (crop injury, 0 = no effect, 100 = complete kill) at 125 g/ha in the assay with corn (Zea mays) (postemergence) was 0%.
As to `COc1cc([C@H]2CN(C)C(=O)[C@@H]2C(=O)Nc2ccccc2S(C)(=O)=O)ccc1F` [Compound 1302], the pest or weed control at 125 g/ha in assay [1] (setting [9]) was 60%; in assay [2] (setting [11]), 0%; in assay [3] (setting [14]), 0%; in assay [4] (setting [16]), 0%. Besides, the pest or weed control at 500 g/ha in assay [1] (setting [10]) was found to be 90%; in assay [2] (setting [12]), 20%; in assay [3] (setting [15]) it was 0%; in assay [4] (setting [17]) it was 20%. In addition, the plant injury at 125 g/ha in the assay on corn (Zea mays) (setting [13]) was 0%. Besides, in the assay with corn (Zea mays) (Postemergence, 500 g ai/ha), the Corn plant response rating (crop injury, 0 = no effect, 100 = complete kill) at 500 g/ha is 0%.
Turning to `Cc1ccc([C@H]2CCN(C)C(=O)[C@@H]2C(=O)Nc2cccc(Cl)c2F)cc1` [Compound 1223], the pest or weed control at 125 g/ha in assay [1] (setting [18]) is 30%; in assay [2] (setting [19]) it was 30%; in assay [3] (setting [21]), 0%; in assay [4] (setting [22]) it was 20%. The pest or weed control at 500 g/ha in assay [1] (postemergence, 0 to 100 scale, 0 is no effect, 100 is complete control, read-out: Barnyardgrass plant response rating) came out at 50%; in assay [2] (postemergence, 0 to 100 scale, 0 is no effect, 100 is complete control, read-out: Blackgrass plant response rating) it was 50%; in assay [3] (postemergence, 0 to 100 scale, 0 is no effect, 100 is complete control, read-out: Ragweed plant response rating), 20%; in assay [4] (postemergence, 0 to 100 scale, 0 is no effect, 100 is complete control, read-out: Ryegrass, Italian plant response rating), 60%. In addition, the plant injury at 125 g/ha with corn (Zea mays) (setting [20]) was found to be 0%. Moreover, in the assay on corn (Zea mays) (500 g ai/ha, postemergence, 0 to 100 scale, 0 is no effect, 100 is complete control, read-out: Corn plant response rating), the plant injury at 500 g/ha was 0%.
For the compound `Cc1ccc([C@H]2CN(C)C(=O)[C@@H]2C(=O)Nc2cccc(F)c2C)cc1C` [Compound 732], the pest or weed control at 125 g/ha was 90% in assay [1] (setting [5]), 50% in assay [2] (setting [6]), 0% in assay [3] (setting [7]) and 50% in assay [4] (setting [8]). In the assay with corn (Zea mays) (postemergence), the Corn plant response rating (crop injury, 0 = no effect, 100 = complete kill) at 125 g/ha amounted to 70%.
As to `Cc1cc([C@H]2CNC(=O)[C@@H]2C(=O)Nc2ccccc2S(C)(=O)=O)ccc1Cl` [Compound 1246], the pest or weed control at 125 g/ha was determined as 50% in assay [1] (setting [18]), 0% in assay [2] (setting [19]), 10% in assay [3] (setting [21]) and 0% in assay [4] (setting [22]). For the same compound, the pest or weed control at 500 g/ha in assay [1] (setting [10]) is 80%; in assay [2] (setting [12]), 40%; in assay [3] (setting [15]), 60%; in assay [4] (setting [17]), 0%. Moreover, the plant injury at 125 g/ha in the assay on corn (Zea mays) (setting [20]) came to 0%. The same compound returned a Corn plant response rating (crop injury, 0 = no effect, 100 = complete kill) at 500 g/ha with corn (Zea mays) (Postemergence, 500 g ai/ha) of 40%.
Regarding `CCc1ccc([C@H]2CNC(=S)[C@@H]2C(=O)Nc2ccccc2SC)cc1` [Compound 763], the pest or weed control at 125 g/ha in assay [1] (setting [5]), in assay [2] (setting [6]), in assay [3] (setting [7]) and in assay [4] (setting [8]) was 0% each time. In addition, the Corn plant response rating (crop injury, 0 = no effect, 100 = complete kill) at 125 g/ha with corn (Zea mays) (postemergence) was 0%.
Consider `Cc1cc(F)cc([C@H]2CNC(=O)[C@@H]2C(=O)Nc2cccc(F)c2C)c1` [Compound 1308], for which the pest or weed control at 125 g/ha was determined as 80% in assay [1] (setting [9]), 30% in assay [2] (setting [11]), 0% in assay [3] (setting [14]) and 0% in assay [4] (setting [16]). Moreover, the pest or weed control at 500 g/ha in assay [1] (setting [10]) turned out to be 80%; in assay [2] (setting [12]) it was 50%; in assay [3] (setting [15]), 20%; in assay [4] (setting [17]), 0%. In addition, the plant injury at 125 g/ha in the assay with corn (Zea mays) (setting [13]) was 20%. Moreover, the Corn plant response rating (crop injury, 0 = no effect, 100 = complete kill) at 500 g/ha in the assay with corn (Zea mays) (Postemergence, 500 g ai/ha) amounted to 80%.
`Cc1nc([C@H]2CN(C)C(=O)[C@@H]2C(=O)Nc2ccccc2F)cs1` [Compound 1280]: the pest or weed control at 125 g/ha in assay [1] (setting [9]), in assay [2] (setting [11]), in assay [3] (setting [14]) and in assay [4] (setting [16]) was 0% each time. The pest or weed control at 500 g/ha is 40% in assay [1] (setting [10]), 0% in assay [2] (setting [12]), 0% in assay [3] (setting [15]) and 0% in assay [4] (setting [17]). Also, the plant injury at 125 g/ha in the assay with corn (Zea mays) (setting [13]) amounted to 0%. In addition, the Corn plant response rating (crop injury, 0 = no effect, 100 = complete kill) at 500 g/ha in the assay with corn (Zea mays) (Postemergence, 500 g ai/ha) was determined as 0%.
